Experimental data: patent publication US11400101B2, “Treatment of allergic rhinitis using a combination of mometasone and olopatadine” (GLENMARK SPECIALTY S.A., priority 2013, dated 2022)

Key:
[1] = system: total cells and eosinophils in nasal lavage; experiment: Nasal lavage total cell count and eosinophils in ovalbumin induced rhinitis model; format: in vivo, guinea pigs; conditions: for Inhibition of total cell and eosinophils in nasal lavage (in words): MF 10 μg; for % inhibition of eosinophils / Percent inhibition of total cell count / Eosinophils × 10^5/ml nasal lavage / Total cell count × 10^5/ml nasal lavage: MF 10 μg per animal
Method: Male Dunkin Hartley guinea pigs were actively sensitized with a subcutaneous injection of 1.5 mg of ovalbumin and 20 mg of aluminum hydroxide gel on days 0 and 7. Guinea pigs were sensitized intranasally with 2% ovalbumin from days 14-17. On day 28, the animals were challenged with 6% ovalbumin intranasally. Mometasone furoate 10 μg was given intranasally 24 hours and 1 hour prior to the final ovalbumin challenge. Olopatadine hydrochloride was given intranasally 1 hour before the final ovalbumin challenge. The dosing volume was 40 μl/animal. The saline control group and ovalbumin control group received vehicle (40 μl, 0.1% Tween 80 in distilled water). Nasal lavage was performed at 4 hours after challenge of animals with saline or ovalbumin on day 28. Animals were anesthetized with an overdose of urethane, the trachea was exposed and nasal lavage was performed using 2 mL pre-warmed normal saline. The collected nasal lavage was taken for total cell count using a hemocytometer. The nasal lavage was centrifuged, and the cell pellet resuspended in 15 μL guinea pig serum and used for preparation of smears. Slides were stained with Leishman's stain and a differential cell count of 100 cells based on standard morphology was performed manually. The total number of eosinophils in each nasal lavage sample was calculated using the formula: [formula] Percent inhibition of eosinophils was calculated using the following formula: The procedure in Example 1 was repeated except 120 μg of olopatadine hydrochloride (based on the equivalent weight of olopatadine free base) was used. The animal groups in Table 3 below were used during this experiment. Compound administration was performed as in Example 1, except the dosing volume was 60 μl/animal. The saline control group and ovalbumin control group received vehicle (60 μl, 0.1% Tween 80 in distilled water). In vivo evaluations were performed as in Example 1.

[2] = Plasma pharmacokinetics of TP-1 in the Phase III study, day 1 and day 8 (steady state); format: in vivo, human; conditions: human, in vivo
Excerpt: (§1) This study consisted of four visits to the study site. After the initial screening visit (Visit 1), subjects who met all study selection criteria were required to undergo a single-blind placebo run-in period for 7-10 days. Following the completion of the run-in period, eligible subjects meeting the randomization criteria were enrolled and randomized to one of the four treatment arms. Subjects were dispensed medication as per the randomization list. Randomized subjects were required to undergo a 2 week (14 days) treatment period as per the protocol to assess the efficacy and safety of the assigned treatment. Subjects were instructed to record the symptom scores in a symptom assessment diary. They were also scheduled to have at least two blood samples for PK assessment during the treatment period.
• Change from baseline in average AM and PM subject-reported 12-hour rTNSS (reflective TNSS) over the 14-day treatment period. Secondary Endpoints • Change from baseline in average AM and PM subject-reported 12-hour iTNSS (instantaneous TNSS) over the 14 day treatment period. • Change from baseline in average AM and PM subject-reported 12-hour rTOSS (reflective TOSS) over the 14-day treatment period. • Onset of action for each treatment are assessed by comparing the change from baseline in post-treatment iTNSS between each active treatment and placebo at defined time points (prior to first dose (pre-dose), 15 min, 30 min, 45 min, 60 min, 90 min, 120 min, 150 min, 180 min, 210 min, and 240 min) after the first study treatment for 4 hours. • Change from baseline in the overall Rhinoconjunctivitis Quality of Life questionnaire (RQLQ)—Standardized Activities (RQLQ(S)) score on Day 15 (Visit 4) for the Full Analysis Set (FAS). Pharmacokinetic Endpoints • Plasma PK: Maximum plasma concentration (Cmax), time to attain Cmax (Tmax), and area under the plasma concentration-time curve over the dosing interval (AUCtau) will be estimated for mometasone furoate and olopatadine on Day 1 and Day 8 based on the pharmacokinetic analysis set (PKAS). Tertiary Efficacy Endpoints Nasal Symptoms: • Change from baseline in AM subject-reported rTNSS over the 14-day treatment period. • Change from baseline in AM subject-reported iTNSS over the 14-day treatment period. • Change from baseline in PM subject-reported rTNSS over the 14-day treatment period. • Change from baseline in PM subject-reported iTNSS over the 14-day treatment period. • Change from baseline in subject-reported reflective individual nasal symptoms over the 14-day treatment period (AM, PM and average of AM and PM). • Change from baseline in subject-reported instantaneous individual nasal symptoms over the 14-day treatment period (AM, PM and average of AM and PM). • Change from baseline in average AM and PM subject-reported rTNSS and iTNSS for each day. • Change from baseline in AM subject-reported rTNSS and iTNSS for each day. • Change from baseline in PM subject-reported rTNSS and iTNSS for each day. […]

sneezing response = experiment: Sneezing response in ovalbumin induced rhinitis model (whole body plethysmography); format: in vivo, guinea pigs; conditions: for Inhibition of sneezing response (in words) / Number of Sneeze (0-50 min): MF 10 μg; for Percent inhibition of sneeze: MF 10 μg per animal, vs ovalbumin control; for Number of Sneeze (0-50 min): intranasal, ovalbumin challenged
Method: Male Dunkin Hartley guinea pigs were actively sensitized with a subcutaneous injection of 1.5 mg of ovalbumin and 20 mg of aluminum hydroxide gel on days 0 and 7. Guinea pigs were sensitized intranasally with 2% ovalbumin from days 14-17. On day 28, the animals were challenged with 6% ovalbumin intranasally. Mometasone furoate 10 μg was given intranasally 24 hours and 1 hour prior to the final ovalbumin challenge. Olopatadine hydrochloride was given intranasally 1 hour before the final ovalbumin challenge. The dosing volume was 40 μl/animal. The saline control group and ovalbumin control group received vehicle (40 μl, 0.1% Tween 80 in distilled water). Sneezing response was determined by using whole body plethysmography (Buxco Research Systems, USA) for 50 minutes after final saline or ovalbumin challenge. The procedure in Example 1 was repeated except 120 μg of olopatadine hydrochloride (based on the equivalent weight of olopatadine free base) was used. The animal groups in Table 3 below were used during this experiment. Compound administration was performed as in Example 1, except the dosing volume was 60 μl/animal. The saline control group and ovalbumin control group received vehicle (60 μl, 0.1% Tween 80 in distilled water). In vivo evaluations were performed as in Example 1.

[3] = Crystallization of olopatadine hydrochloride in the fixed dose combination aqueous suspension versus pH; format: physicochemical
[4] = Pharmacokinetics of olopatadine, single-dose three-period cross-over study, Example 12; format: in vivo, human; conditions: single dose nasal spray
Method: The pharmacokinetics of olopatadine in a fixed dose combination of mometasone furoate and olopatadine hydrochloride nasal spray was evaluated in a clinical trial. The clinical trial was a randomized, single-center, single-dose, open-label, three-period, six-sequence, cross-over study to evaluate three treatments administered as a nasal spray. The three treatments included a combination of mometasone furoate and olopatadine hydrochloride nasal spray, olopatadine hydrochloride nasal spray and […]® nasal spray. […] The study consisted of a screening visit, 3 single-dose treatment periods with washout periods of 7 to 14 days between dosing in each treatment period, an early withdrawal visit if applicable, and a follow-up telephone call (or visit) 1 to 7 days after completing the third treatment period. A total of 30 subjects were randomized to 1 of 6 treatment sequences and received at least 1 dose of study drug. All 30 subjects were included in the safety analysis set and the pharmacokinetic subset. All but 2 subjects completed the study per protocol.

[5] = system: seasonal allergic rhinitis (SAR); experiment: Phase III clinical study in SAR, fall and mountain cedar season, Example 6; conditions: human, in vivo
Excerpt: A total of 1,176 randomized subjects (˜294 subjects per treatment arm) were enrolled in the study.
Subjects were randomized to treatment in a 1:1:1:1 ratio to the following four treatment arms, at multiple study sites.
as §1, with “diary.” for “diary. They were also scheduled to have at least two blood samples for PK assessment during the treatment period.”
• Change from baseline in average AM and PM subject-reported 12-hour rTNSS (reflective TNSS) over the 14-day treatment period. […] The non-nasal symptoms are assessed in a similar manner to the ocular symptoms above. […]

[6] = Example 1, OH 50 μg, 4 hours after challenge

With CN(C)CC/C=C1/c2ccccc2COc2ccc(CC(=O)O)cc21.Cl [Olopatadine Hydrochloride, (Z)-11-[3-(dimethylamino)propylidene]-6,11-dihydrodibenz[b,e]oxepin-2-acetic acid hydrochloride] the “Inhibition of total cell and eosinophils in nasal lavage (in words)” value ([1]; Example 1, OH 50 μg) was “did not show significant inhibition”, the “% inhibition of eosinophils” value ([1]; Example 1, OH 50 μg) was 2% and the “Percent inhibition of total cell count” value ([1]; Example 1, OH 50 μg) was 3%. For the same compound, the “Eosinophils × 10^5/ml nasal lavage” value [1, 6] was 3.64 × 10^5/ml, the “Total cell count × 10^5/ml nasal lavage” value [1, 6] was 6.63 × 10^5/ml and the “Inhibition of total cell and eosinophils in nasal lavage (in words)” value ([1]; Example 2, OH 120 μg) was “did not show significant inhibition”. For the same compound, the “% inhibition of eosinophils” value ([1]; Example 2, OH 120 μg) was 8%, the “Eosinophils × 10^5/ml nasal lavage” value ([1]; Example 2, OH 120 μg) was 3.08 × 10^5/ml and the “Percent inhibition of total cell count” value ([1]; Example 2, OH 120 μg) was 17%. For the same compound, the “Total cell count × 10^5/ml nasal lavage” value ([1]; Example 2, OH 120 μg) was 5.83 × 10^5/ml, the “Olopatadine Tmax, Median” value [2] was 1.00 h and the “Inhibition of sneezing response (in words)” value (sneezing response; Example 1, OH 50 μg) was “did not show significant inhibition”. For the same compound, the “Percent inhibition of sneeze” value (sneezing response; Example 1, OH 50 μg) was 45%, the “Number of Sneeze (0-50 min)” value (sneezing response; Example 1, per animal: OH 50 μg, combination 50 (OH) & 10 (MF)) was 12.29 and the “Inhibition of sneezing response (in words)” value (sneezing response; Example 2, OH 120 μg) was “did not show significant inhibition”. The “Percent inhibition of sneeze” value (sneezing response; Example 2, OH 120 μg) was 51%, the “Number of Sneeze (0-50 min)” value (sneezing response; Example 2, per animal: OH 120 μg, combination 120 (OH) & 10 (MF)) was 17.90 and the “State of olopatadine hydrochloride in the fixed dose combination aqueous suspension” value ([3]; pH of 5 to 5.5) was “crystallizes out”. For the same compound, the “State of olopatadine hydrochloride in the aqueous suspension” value ([3]; pH of about 3.3 to about 4.1) was “remains dissolved” and the “Last time point until which quantifiable concentrations were observed” value [4] was 48 h.
For “Mometasone Furoate Monohydrate and Olopatadine Hydrochloride Nasal Spray (25 mcg+600 mcg) [TP-1]”, the “Urinary tract infection reported as adverse event” value [5] was 1%.
